Legend:
[1] = test system: mice; test: Short term (14 day) work capacity: swimming lengths within 30 minutes, hepatic glycogen; assay type: in vivo, mouse
Procedure: Seventy two animals (mice) were divided into 12 groups of 6 animals each; a control group (untreated) and 11 test groups that were intragastrically administered varying daily doses of inosine, potassium orotate or an inosine plus potassium orotate combination (the “combination”) for 14 days. […] The swimming exercise consisted of forcing the animals to perform repetitive swimming in a three meter long channel until exhaustion. The level of exhaustion was determined by a count of the number of swimming lengths which each animal did within 30 minutes. A lower number of swimming lengths indicated a greater level of exhaustion, whereas a higher number of lengths indicated a greater work capacity.

[2] = test system: rats with experimental aortic stenosis; test: Short term (7 day) experimental aortic stenosis: heart weight and swimming to exhaustion; assay type: in vivo, rat; settings: EAS rats; for Heart Weight: intragastric daily
From the text: There are two 7 day experiments in this portion of the study; a preliminary 7 day study with 54 rats in 9 groups (6 rats per group) to determine optimal dosage levels for the separate inosine or potassium orotate ingredients for farther experimentation by determination of maximal heart weight development and work capacity; and then a study with 30 rats in 5 groups (6 rats per group) using the optimal single ingredient dosage levels for comparison with the results of a composition of the ingredients. All compounds were administered intragastrically through a tube after being dissolved in approximately 1 ml of water.
A single control group received a sham operation, while the rest of the groups received experimental aortic stenosis (“EAS”) operations (all according to Beznak in Journal Physiol. (Lond.) 120.23P, 1953 as modified by Kogan, Bull eksper. Biol. Med., 26:112, 1961 and then the other 13 groups received various treatments and dosages of inosine or potassium orotate or a composition of the two ingredients after the optimal inosine and potassium orotate dosages were determined. All animals were tested at the beginning and end of the experiment for swimming to exhaustion times with a 7.5% body weight load attached to their tails.
Sach compound, i.e., inosine and potassium orotate, was administered at different doses and the level of heart hypertrophy and work capacity was observed. Each of the compounds was evaluated in four doses: 12.5 mg/kg, 25 mg/kg, 50 mg/kg and 100 mg/kg body weight. Six animals were used in each group for inosine [4 groups] and potassium orotate [4 groups] plus the one control group (sham operated, no treatment); 54 animals in total.
Thirty white rats were divided into 5 groups (6 animals in each group). Group I was a sham-operated control group, Group II animals with experimental aortic stenosis but were untreated, Groups III, IV & V animals, all with experimental aortic stenosis received by an intragastric tube each day, either inosine (25 mg/kg body weight), potassium orotate (50 mg/kg body weight) or an composition of inosine (25 mg/kg body weight) plus potassium orotate (50 mg/kg body weight), respectively.

[3] = test system: chinchilla rabbits with experimental myocardial infarction; test: Experimentally-induced myocardial infarction (coronary artery ligation); assay type: in vivo, rabbit; settings: for NN of Animals With Necrosis: of 10 animals; for EKG Q: oral 100 mg/kg BW of each ingredient daily
Procedure: Histological, light microscopic methods of investigation have been employed to study the zone of necrosis, perinecrotic zone and myocardium regions spaced from the time of infarction by 7 and 14 days after the infarction event. Dynamic electrocardiographic observation over the animals was carried out during the first day and during the following 7 and 14 days. The study of the total cross-sectional patterns of a rabbit's heart has made it possible to precisely define these zones. The first Group of 10 animals was sham-operated without treatment (Group I, positive control-Intact, no MI). […] Group II animals were without treatment (negative control-MI Control).

[4] = seventh day, inosine 25 mg/kg BW, potassium orotate 50 mg/kg BW, alone or together
[5] = seventh day, inosine 25 mg/kg BW, potassium orotate 50 mg/kg BW, alone or together, listed as Inosine

OC[C@H]1O[C@@H](n2cnc3c(O)ncnc32)[C@H](O)[C@@H]1O [inosine]
Swimming lengths ([1]; 12.5 mg/kg BW daily for 14 days intragastrically, within 30 minutes, control 24.9): 33.9 | increase in number of swimming lengths ([1]; 12.5 mg/kg/body weight daily, 14 days): 35.4% | Swimming lengths ([1]; 25 mg/kg BW, 14 days): 46.4 | increase in number of swimming lengths ([1]; 25 mg/kg/body weight daily, 14 days): 85.6% | Swimming lengths ([1]; 50 mg/kg BW, 14 days): 39.6 | increase in number of swimming lengths ([1]; 50 mg/kg/body weight daily, 14 days): 58.5% | Swimming lengths ([1]; 100 mg/kg BW, 14 days): 31.1 | increase in number of swimming lengths ([1]; 100 mg/kg/body weight daily, 14 days): 24.3% | mean decrease of hepatic glycogen stores during the swimming exercise ([1]; controls 67.5% from baseline): 24.5% | increased hepatic glycogen content ([1]; inosine 25 mg/kg, potassium orotate 50 mg/kg, or combination): 21% | swimming time ([2]; day 7, 12.5 mg/kg intragastrically, EAS control 15±5.0, sham 62±5.0): 18 ± 2.0 min | swimming time ([2]; day 7, 25 mg/kg): 28 ± 3.0 min | swimming time ([2]; day 7, 50 mg/kg): 29 ± 3.0 min | swimming time ([2]; day 7, 100 mg/kg): 27.0 ± 3.0 min | relative heart weight ([2]; seventh day, 12.5 mg/kg, EAS control 400±8.9, sham 300±5.0): 410±9.0 mg/100 g. body weight | relative heart weight ([2]; seventh day, 25 mg/kg): 440±12 mg/100 g. body weight | relative heart weight ([2]; seventh day, 50 mg/kg): 442±12 mg/100 g. body weight | relative heart weight ([2]; seventh day, 100 mg/kg): 440±10 mg/100 g. body weight | swimming time [2, 4]: 31 ± 3.0 min | Heart Weight [2, 4]: 450±12 mg/100 gr BW | Heart Weight [2, 5]: 450 ± 12 mg/100 gr BW | swimming time [2, 5]: 31 ± 3.0 min | Thickness of Left Ventricular Wall ([3]; Day 7): 5.2 ± 0.72 mm | EKG R ([3]; Day 7, 100 mg/kg BW each): 4.1 ± 0.30 mm | NN of Animals With Necrosis ([3]; Day 7, MI control 10): 5 | EKG Q ([3]; Day 7): 1.1 ± 0.03 mm | EKG QRS ([3]; Day 14): 0.068 ± 0.003 s | EKG R ([3]; Day 14): 4.3 ± 0.28 mm | Thickness of Left Ventricular Wall ([3]; Day 14): 5.6 ± 0.21 mm | NN of Animals With Necrosis ([3]; Day 14, MI control 3): 0 | EKG Q ([3]; Day 14): 0.8 ± 0.02 mm | reduction in necroses ([3]; administered individually, 100 mg/kg): 50% | hemorrhages or infiltration in the infarction zone ([3]; by the fourteenth day): virtually had no hemorrhages or infiltration in the infarction zone | restoration of EKG readings ([3]; by the seventh experimental day): nearly a complete restoration of the voltage of EKG waves and of the systolic index

— patent US20100190737A1, “COMPOSITIONS COMPRISING INOSINE AND OROTIC ACID AND METHODS OF USE THEREOF FOR THE TREATMENT OF CERTAIN HEART CONDITIONS AND ENHANCEMENT OF WORK CAPACITY” (NUTRITIONAL RESEARCH GROUP LLC, priority 2009, published 2010)
